Data taken from ChEMBL document CHEMBL5291721, “A preclinical secondary pharmacology resource illuminates target-adverse drug reaction associations of marketed drugs” (Nat Commun, 2023).

How the values were obtained:
Vasopressin V2 receptor = Vasopressin V2 receptor (Homo sapiens, UniProt P30518)
Adenosine receptor A3 [1] = biological target: T1, Adenosine receptor A3 (Homo sapiens, UniProt P0DMS8)
T1 sequence (P0DMS8 whole entry): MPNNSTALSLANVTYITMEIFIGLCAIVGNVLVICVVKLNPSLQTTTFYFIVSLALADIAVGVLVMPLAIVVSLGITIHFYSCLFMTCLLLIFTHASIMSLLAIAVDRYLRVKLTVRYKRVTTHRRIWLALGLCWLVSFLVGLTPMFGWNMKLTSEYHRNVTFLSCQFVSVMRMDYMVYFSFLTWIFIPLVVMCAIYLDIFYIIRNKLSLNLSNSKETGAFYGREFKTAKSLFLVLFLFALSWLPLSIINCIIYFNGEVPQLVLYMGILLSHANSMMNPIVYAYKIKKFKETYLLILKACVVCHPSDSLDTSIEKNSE

[2] = biological target: T2, Alpha-1A adrenergic receptor (Homo sapiens, UniProt P35348); type: functional, cell-based
T2 sequence (P35348 whole entry): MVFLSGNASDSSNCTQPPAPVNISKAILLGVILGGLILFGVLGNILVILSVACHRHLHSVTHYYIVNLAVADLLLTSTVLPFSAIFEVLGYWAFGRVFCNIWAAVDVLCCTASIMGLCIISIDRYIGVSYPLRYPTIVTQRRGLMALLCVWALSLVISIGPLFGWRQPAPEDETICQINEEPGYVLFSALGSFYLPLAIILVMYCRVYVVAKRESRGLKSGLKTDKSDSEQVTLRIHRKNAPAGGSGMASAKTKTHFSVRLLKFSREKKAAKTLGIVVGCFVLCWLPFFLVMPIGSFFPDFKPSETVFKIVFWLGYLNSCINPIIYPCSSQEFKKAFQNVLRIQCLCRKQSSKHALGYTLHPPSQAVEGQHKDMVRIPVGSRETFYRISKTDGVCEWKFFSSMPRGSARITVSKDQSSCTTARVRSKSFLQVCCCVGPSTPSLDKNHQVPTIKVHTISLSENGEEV

[3] = biological target: 3',5'-cyclic-AMP phosphodiesterase 4D (Homo sapiens, UniProt Q08499); type: functional
3',5'-cyclic-AMP phosphodiesterase 4D, sequence (Q08499 whole entry): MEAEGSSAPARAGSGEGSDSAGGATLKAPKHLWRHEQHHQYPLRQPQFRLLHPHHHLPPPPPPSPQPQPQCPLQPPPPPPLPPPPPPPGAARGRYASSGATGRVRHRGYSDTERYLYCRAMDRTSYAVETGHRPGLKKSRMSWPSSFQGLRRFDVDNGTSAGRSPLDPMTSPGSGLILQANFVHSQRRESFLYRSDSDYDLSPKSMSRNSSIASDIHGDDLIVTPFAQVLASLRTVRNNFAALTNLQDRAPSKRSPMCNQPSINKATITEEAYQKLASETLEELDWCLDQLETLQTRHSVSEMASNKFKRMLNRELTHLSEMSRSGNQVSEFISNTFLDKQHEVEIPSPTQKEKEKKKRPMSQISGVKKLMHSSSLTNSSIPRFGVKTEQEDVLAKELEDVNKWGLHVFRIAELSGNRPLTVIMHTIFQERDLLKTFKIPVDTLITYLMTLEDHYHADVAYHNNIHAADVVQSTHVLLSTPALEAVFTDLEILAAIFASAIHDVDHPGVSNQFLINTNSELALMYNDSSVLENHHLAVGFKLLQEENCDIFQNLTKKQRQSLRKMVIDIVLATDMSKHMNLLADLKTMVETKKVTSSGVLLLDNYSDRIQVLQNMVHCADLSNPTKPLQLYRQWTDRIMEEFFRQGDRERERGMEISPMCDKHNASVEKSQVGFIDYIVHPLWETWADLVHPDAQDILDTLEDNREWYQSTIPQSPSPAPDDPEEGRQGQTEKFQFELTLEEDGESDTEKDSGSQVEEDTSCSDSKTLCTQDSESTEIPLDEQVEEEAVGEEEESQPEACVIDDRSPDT

[4] = biological target: cGMP-inhibited 3',5'-cyclic phosphodiesterase 3A (Homo sapiens, UniProt Q14432); type: functional
cGMP-inhibited 3',5'-cyclic phosphodiesterase 3A, sequence (Q14432 whole entry): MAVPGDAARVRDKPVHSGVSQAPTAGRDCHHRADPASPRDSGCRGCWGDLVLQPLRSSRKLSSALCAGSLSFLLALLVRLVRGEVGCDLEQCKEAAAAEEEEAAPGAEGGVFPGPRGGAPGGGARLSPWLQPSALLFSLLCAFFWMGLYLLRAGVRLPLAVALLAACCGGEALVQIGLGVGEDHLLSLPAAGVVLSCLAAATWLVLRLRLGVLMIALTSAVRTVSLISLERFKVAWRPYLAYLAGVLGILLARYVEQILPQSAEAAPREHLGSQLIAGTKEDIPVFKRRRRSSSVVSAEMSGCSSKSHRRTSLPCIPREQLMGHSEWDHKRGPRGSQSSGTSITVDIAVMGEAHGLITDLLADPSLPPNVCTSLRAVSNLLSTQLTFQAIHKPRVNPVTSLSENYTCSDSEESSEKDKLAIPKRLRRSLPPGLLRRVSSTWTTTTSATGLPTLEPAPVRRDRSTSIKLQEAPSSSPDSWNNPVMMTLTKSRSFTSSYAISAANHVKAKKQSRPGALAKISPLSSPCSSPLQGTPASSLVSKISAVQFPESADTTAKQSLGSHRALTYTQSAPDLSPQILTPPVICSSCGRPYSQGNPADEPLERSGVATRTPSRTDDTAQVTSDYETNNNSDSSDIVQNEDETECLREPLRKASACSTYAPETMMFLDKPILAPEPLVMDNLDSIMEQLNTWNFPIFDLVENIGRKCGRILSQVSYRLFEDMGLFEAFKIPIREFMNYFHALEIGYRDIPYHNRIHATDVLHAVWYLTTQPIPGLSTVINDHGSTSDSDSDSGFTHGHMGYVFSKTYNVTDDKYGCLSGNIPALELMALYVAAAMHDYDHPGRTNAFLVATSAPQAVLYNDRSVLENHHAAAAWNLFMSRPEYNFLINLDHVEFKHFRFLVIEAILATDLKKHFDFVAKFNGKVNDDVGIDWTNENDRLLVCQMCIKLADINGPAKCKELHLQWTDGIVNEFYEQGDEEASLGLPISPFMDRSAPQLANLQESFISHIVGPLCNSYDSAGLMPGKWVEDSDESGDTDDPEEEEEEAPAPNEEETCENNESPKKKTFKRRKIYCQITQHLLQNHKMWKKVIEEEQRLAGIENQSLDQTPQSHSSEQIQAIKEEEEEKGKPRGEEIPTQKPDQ

[5] = biological target: 5-hydroxytryptamine receptor 2B (Homo sapiens, UniProt P41595); type: functional, cell-based
Adenosine receptor A2a = Adenosine receptor A2a (Homo sapiens, UniProt P29274)
Adenosine receptor A2a, sequence (P29274 whole entry): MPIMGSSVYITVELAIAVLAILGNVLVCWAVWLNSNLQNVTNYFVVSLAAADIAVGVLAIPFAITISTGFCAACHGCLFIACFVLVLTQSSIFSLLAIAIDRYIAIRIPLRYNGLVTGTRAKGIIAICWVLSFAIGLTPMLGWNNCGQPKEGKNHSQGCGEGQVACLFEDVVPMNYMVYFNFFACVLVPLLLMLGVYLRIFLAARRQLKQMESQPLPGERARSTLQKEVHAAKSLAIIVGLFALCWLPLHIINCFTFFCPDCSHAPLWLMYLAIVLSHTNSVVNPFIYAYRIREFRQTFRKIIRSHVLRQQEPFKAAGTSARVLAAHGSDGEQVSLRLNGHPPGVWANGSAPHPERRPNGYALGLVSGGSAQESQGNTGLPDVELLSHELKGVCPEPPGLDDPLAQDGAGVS

[6] = biological target: Gamma-aminobutyric acid receptor subunit alpha-1 (Rattus norvegicus, UniProt P62813)
Gamma-aminobutyric acid receptor subunit alpha-1, sequence (P62813 whole entry): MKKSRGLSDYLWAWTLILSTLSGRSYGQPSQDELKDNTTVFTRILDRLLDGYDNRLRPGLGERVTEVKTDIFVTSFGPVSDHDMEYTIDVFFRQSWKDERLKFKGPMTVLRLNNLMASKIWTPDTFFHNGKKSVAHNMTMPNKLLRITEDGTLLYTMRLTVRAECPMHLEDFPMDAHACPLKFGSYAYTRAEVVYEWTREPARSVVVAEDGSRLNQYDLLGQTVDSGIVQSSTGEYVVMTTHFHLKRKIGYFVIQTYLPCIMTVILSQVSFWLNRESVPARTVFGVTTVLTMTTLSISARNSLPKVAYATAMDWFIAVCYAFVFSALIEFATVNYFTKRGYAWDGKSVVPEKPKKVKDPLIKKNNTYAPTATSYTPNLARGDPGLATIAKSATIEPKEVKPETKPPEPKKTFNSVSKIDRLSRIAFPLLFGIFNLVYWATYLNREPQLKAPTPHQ

[7] = biological target: T2, Alpha-1A adrenergic receptor; type: functional, cell-based; remark: listed apart in the source
Motilin receptor = Motilin receptor (Homo sapiens, UniProt O43193)
Motilin receptor, sequence (O43193 whole entry): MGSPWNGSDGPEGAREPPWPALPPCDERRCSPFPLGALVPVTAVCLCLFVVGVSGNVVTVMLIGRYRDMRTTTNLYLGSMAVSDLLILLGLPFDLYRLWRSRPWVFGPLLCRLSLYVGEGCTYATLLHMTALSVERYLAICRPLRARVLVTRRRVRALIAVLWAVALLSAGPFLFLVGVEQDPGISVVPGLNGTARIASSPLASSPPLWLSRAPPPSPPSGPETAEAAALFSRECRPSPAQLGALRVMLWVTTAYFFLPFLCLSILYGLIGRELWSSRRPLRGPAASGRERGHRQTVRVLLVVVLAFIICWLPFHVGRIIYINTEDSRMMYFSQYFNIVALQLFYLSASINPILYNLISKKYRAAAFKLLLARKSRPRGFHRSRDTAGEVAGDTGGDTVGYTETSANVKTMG

[8] = biological target: T3, Muscarinic acetylcholine receptor M2 (Homo sapiens, UniProt P08172); type: functional, cell-based
T3 sequence (P08172 whole entry): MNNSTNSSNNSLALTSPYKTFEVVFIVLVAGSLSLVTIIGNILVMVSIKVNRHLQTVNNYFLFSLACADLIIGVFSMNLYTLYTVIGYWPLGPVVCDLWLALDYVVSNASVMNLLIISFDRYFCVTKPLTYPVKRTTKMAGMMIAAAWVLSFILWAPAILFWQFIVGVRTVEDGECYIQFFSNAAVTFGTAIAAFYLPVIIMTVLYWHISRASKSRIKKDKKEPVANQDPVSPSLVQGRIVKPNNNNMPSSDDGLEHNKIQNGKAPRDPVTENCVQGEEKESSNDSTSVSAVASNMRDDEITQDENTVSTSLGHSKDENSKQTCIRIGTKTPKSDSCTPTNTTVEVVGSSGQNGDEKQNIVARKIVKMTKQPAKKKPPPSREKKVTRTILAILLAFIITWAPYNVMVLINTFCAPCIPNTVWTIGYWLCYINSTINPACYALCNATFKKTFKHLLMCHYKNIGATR

Vasopressin V1a receptor = Vasopressin V1a receptor (Homo sapiens, UniProt P37288)
Vasopressin V1a receptor, sequence (P37288 whole entry): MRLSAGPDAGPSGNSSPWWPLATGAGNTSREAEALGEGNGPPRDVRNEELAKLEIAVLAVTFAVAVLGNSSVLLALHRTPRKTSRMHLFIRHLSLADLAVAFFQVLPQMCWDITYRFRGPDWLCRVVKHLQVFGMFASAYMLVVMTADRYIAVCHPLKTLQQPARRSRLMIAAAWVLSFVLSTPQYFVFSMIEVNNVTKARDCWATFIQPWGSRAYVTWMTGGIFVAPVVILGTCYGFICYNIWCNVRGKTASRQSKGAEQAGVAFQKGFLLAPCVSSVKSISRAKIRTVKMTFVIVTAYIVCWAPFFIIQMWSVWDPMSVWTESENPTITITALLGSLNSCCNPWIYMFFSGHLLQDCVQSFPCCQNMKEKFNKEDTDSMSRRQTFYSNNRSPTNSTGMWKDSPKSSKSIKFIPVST

[9] = biological target: T2, Alpha-1A adrenergic receptor; type: functional, cell-based; remark: listed apart in the source
Adenosine receptor A3 [10] = biological target: T1, Adenosine receptor A3; remark: listed apart in the source
Mu-type opioid receptor = Mu-type opioid receptor (Homo sapiens, UniProt P35372)
Mu-type opioid receptor, sequence (P35372 whole entry): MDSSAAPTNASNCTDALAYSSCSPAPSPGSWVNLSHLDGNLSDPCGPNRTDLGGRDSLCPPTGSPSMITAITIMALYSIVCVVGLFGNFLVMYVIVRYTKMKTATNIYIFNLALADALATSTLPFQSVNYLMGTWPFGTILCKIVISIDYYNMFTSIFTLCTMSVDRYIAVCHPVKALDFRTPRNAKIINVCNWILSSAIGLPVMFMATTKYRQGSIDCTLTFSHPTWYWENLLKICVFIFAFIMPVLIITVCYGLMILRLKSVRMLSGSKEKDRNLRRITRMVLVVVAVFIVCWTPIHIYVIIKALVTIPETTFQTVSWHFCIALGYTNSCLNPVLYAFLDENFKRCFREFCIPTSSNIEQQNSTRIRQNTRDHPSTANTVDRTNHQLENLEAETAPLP

[11] = biological target: Beta-2 adrenergic receptor (Homo sapiens, UniProt P07550); type: functional, cell-based
Beta-2 adrenergic receptor, sequence (P07550 whole entry): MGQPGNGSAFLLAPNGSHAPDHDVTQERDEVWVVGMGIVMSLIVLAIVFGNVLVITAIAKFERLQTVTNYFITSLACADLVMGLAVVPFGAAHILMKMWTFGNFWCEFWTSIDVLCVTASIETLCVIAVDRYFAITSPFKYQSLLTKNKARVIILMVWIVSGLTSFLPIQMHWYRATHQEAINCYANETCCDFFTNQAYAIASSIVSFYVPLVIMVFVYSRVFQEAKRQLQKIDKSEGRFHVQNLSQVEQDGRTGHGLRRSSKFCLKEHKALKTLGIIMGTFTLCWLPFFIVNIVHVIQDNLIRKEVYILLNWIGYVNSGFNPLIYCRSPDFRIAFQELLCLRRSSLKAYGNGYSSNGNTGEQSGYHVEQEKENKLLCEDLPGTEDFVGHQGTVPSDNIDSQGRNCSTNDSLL
Further: assay procedure not described here.

Vasopressin V2 receptor, sequence (P30518 whole entry): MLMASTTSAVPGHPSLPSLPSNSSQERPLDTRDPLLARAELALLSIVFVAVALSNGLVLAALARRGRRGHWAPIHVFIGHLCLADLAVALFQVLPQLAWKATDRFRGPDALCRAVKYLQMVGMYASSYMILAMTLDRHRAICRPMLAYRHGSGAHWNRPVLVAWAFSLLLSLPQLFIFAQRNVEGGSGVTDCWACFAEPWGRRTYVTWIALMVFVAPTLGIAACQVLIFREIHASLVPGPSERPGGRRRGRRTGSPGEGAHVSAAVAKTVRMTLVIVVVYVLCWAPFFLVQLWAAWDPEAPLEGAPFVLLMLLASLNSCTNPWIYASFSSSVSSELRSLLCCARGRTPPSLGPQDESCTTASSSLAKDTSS

Row | SMILES | AC50 (Vasopressin V2 receptor) [µM] | AC50 (Adenosine receptor A3 [1]) [µM] | AC50 [2] [µM] | AC50 [3] [µM] | AC50 [4] [µM] | AC50 [5] [µM] | AC50 (Adenosine receptor A2a) [µM] | AC50 [6] [µM] | AC50 [7] [µM] | AC50 (Motilin receptor) [µM] | AC50 [8] [µM] | AC50 (Vasopressin V1a receptor) [µM] | AC50 [9] [µM] | AC50 (Adenosine receptor A3 [10]) [µM] | AC50 (Mu-type opioid receptor) [µM] | AC50 [11] [µM]
1 | COc1ccc(CC2c3cc(OC)c(OC)cc3CC[N+]2(C)CCC(=O)OCCCCCOC(=O)CC[N+]2(C)CCc3cc(OC)c(OC)cc3C2Cc2ccc(OC)c(OC)c2)cc1OC (centres undefined) | > 30 | > 30 | 12 | > 30 | > 30 | > 30 | > 30 | > 30 | > 30 | > 30 | > 30 | > 30 | – | – | – | –
2 | O=C(O)COc1ccc(C(=O)c2cccs2)c(Cl)c1Cl | – | – | – | – | – | – | – | – | – | – | – | – | > 30 | > 30 | – | –
3 | CC(C(=O)O)c1ccc2c(c1)[nH]c1ccc(Cl)cc12 (centres undefined) [CARPROFEN] | > 30 | > 30 | – | 5.2 | > 30 | > 10 | > 30 | > 10 | – | > 30 | > 10 | > 30 | – | – | > 30 | –
4 | COc1ccccc1OCCNCC(O)COc1cccc2[nH]c3ccccc3c12 (centres undefined) [CARVEDILOL] | > 30 | 18.6 | 0.3 | > 10 | > 30 | 0.532 | > 30 | > 10 | > 30 | 7.61 | > 10 | > 30 | – | – | 1.7 | –
5 | CN(C)[C@@H]1C(O)=C(C(N)=O)C(=O)[C@@]2(O)C(O)=C3C(=O)c4c(O)ccc(Cl)c4[C@@](C)(O)[C@H]3C[C@@H]12 [CHLORTETRACYCLINE] | – | – | – | – | – | – | – | – | – | – | – | – | > 30 | > 30 | – | –
6 | O=C1CN(/N=C/c2ccc(-c3ccc([N+](=O)[O-])cc3)o2)C(O)=N1 [DANTROLENE] | > 10 | > 30 | – | > 30 | > 30 | > 10 | > 30 | > 10 | – | > 10 | > 10 | > 10 | – | – | > 30 | –
7 | CN(C)CC[C@@H](c1ccc(Cl)cc1)c1ccccn1 [DEXCHLORPHENIRAMINE] | > 30 | > 30 | > 30 | > 10 | > 10 | > 30 | > 30 | > 30 | > 30 | > 30 | > 30 | > 30 | – | – | – | –
8 | C[C@H]1O[C@@H](n2cc(F)c(=O)[nH]c2=O)[C@H](O)[C@@H]1O [DOXIFLURIDINE] | – | – | – | – | – | – | – | – | – | – | – | – | > 30 | > 30 | – | –
9 | C[C@]12C=CC(=O)N[C@@H]1CC[C@@H]1[C@@H]2CC[C@]2(C)[C@@H](C(=O)Nc3cc(C(F)(F)F)ccc3C(F)(F)F)CC[C@@H]12 [DUTASTERIDE] | > 10 | > 10 | > 30 | > 30 | > 30 | > 10 | > 10 | > 10 | > 30 | > 10 | > 10 | > 10 | – | – | > 30 | –
10 | CN1C[C@H](C(=O)N[C@]2(C)O[C@@]3(O)[C@@H]4CCCN4C(=O)[C@H](Cc4ccccc4)N3C2=O)C=C2c3cccc4[nH]cc(c34)C[C@H]21 [ERGOTAMINE] | – | > 30 | – | > 30 | > 30 | – | > 30 | – | 3.1 | > 30 | > 30 | > 30 | – | – | > 30 | –
11 | CN(C)CCC[C@@]1(c2ccc(F)cc2)OCc2cc(C#N)ccc21 [ESCITALOPRAM] | > 30 | > 30 | – | > 30 | > 30 | 22 | > 30 | – | – | > 30 | – | > 30 | – | – | – | > 30
12 | C#C[C@]1(O)CC[C@H]2[C@@H]3CCC4=CC(=O)CC[C@@H]4[C@H]3C(=C)C[C@@]21CC [ETONOGESTREL] | – | – | > 30 | > 30 | > 30 | > 30 | – | > 30 | > 30 | – | – | – | – | – | – | > 30
13 | CC(CCc1ccccc1)NCC(O)c1ccc(O)c(C(N)=O)c1 (centres undefined) [LABETALOL] | – | – | – | – | – | – | – | – | – | – | – | – | – | > 30 | – | –
14 | C[N+](C)(C)C[C@H](O)CC(=O)[O-] [LEVOCARNITINE] | – | – | – | – | – | – | – | – | – | – | – | – | > 30 | > 30 | – | –
15 | CN(CC1(C)CCCO1)S(=O)(=O)c1ccc(Cl)c(S(N)(=O)=O)c1 (centres undefined) [MEFRUSIDE] | – | – | > 30 | > 30 | > 30 | > 30 | – | > 30 | > 30 | – | – | – | – | – | – | > 30
16 | CN1C(C(=O)Nc2ccccn2)=C(O)c2ccccc2S1(=O)=O [PIROXICAM] | > 10 | > 10 | – | > 30 | > 30 | > 10 | > 10 | > 10 | – | > 10 | > 10 | > 10 | – | – | > 30 | –
17 | CO[C@H]1/C=C/O[C@@]2(C)Oc3c(C)c(O)c4c(O)c(c(/C=N/N5CCN(C)CC5)c(O)c4c3C2=O)NC(=O)/C(C)=C\C=C\[C@H](C)[C@H](O)[C@@H](C)[C@@H](O)[C@@H](C)[C@H](OC(C)=O)[C@@H]1C [RIFAMPIN] | 30 | 27 | > 30 | 13 | 18.3 | > 30 | 13 | > 30 | > 30 | > 30 | > 30 | 26.7 | – | – | 8 | –
18 | CC(N)C12CC3CC(CC(C3)C1)C2 (centres undefined) [RIMANTADINE] | > 10 | > 10 | – | > 30 | > 30 | > 10 | > 10 | > 10 | – | > 10 | > 10 | – | – | – | > 30 | –
19 | CCN(CC)CCNC(=O)c1c(C)[nH]c(/C=C2\C(=O)Nc3ccc(F)cc32)c1C [SUNITINIB] | 5.4 | 8.4 | – | 9.8 | 18 | 5.2 | 5.3 | > 30 | – | 7.3 | > 30 | > 10 | – | – | 4.9 | –
20 | C[C@]1(Cn2ccnn2)[C@H](C(=O)O)N2C(=O)C[C@H]2S1(=O)=O [TAZOBACTAM] | – | – | – | – | – | – | – | – | – | – | – | – | > 30 | > 30 | – | –
21 | COc1cc2nc(N3CCN(C(=O)C4CCCO4)CC3)nc(N)c2cc1OC (centres undefined) [TERAZOSIN] | > 30 | > 30 | – | > 30 | > 30 | > 10 | > 30 | > 10 | – | > 10 | > 10 | > 10 | – | – | 3 | –
22 | CC(C)(C)NCC(O)c1cc(O)cc(O)c1 (centres undefined) [TERBUTALINE] | > 30 | > 30 | – | – | – | – | > 30 | – | – | > 30 | – | > 30 | – | – | – | –
23 | CC1=C(/C=C/C(C)=C/C=C/C(C)=C/C(=O)O)C(C)(C)CCC1 [TRETINOIN] | – | – | – | – | – | – | – | – | – | – | – | – | 20.3 | 8.21 | – | –
24 | CCCC(CCC)C(=O)O [VALPROIC ACID] | > 30 | > 30 | – | > 30 | > 30 | > 10 | > 30 | > 10 | – | > 10 | > 10 | > 30 | – | – | > 30 | –
